In brackets after ≈: the same amount, converted by molar mass.
Experiments:
Type in all cases: functional, cell-based
[1] = Cytotoxicity against human KB16 cells after 72 hrs; details: KB16, 72 h
A549 = assay: Cytotoxicity against human A549 cells after 72 hrs; details: A549, 72 h
P388 = assay: Cytotoxicity against mouse P388 cells after 72 hrs; details: P388, 72 h
HT-29 = assay: Cytotoxicity against human HT29 cells after 72 hrs; details: HT-29, 72 h

Question: For CC(=O)O[C@H]1C[C@H]2[C@@H](OC(=O)c3ccccc3)[C@@H]3[C@](O)(CO)[C@@H](OC(C)=O)C[C@H](OC(C)=O)[C@@]3(C)[C@@H](OC(C)=O)[C@H](OC(C)=O)C(=C1C)C2(C)C, which IC50 [1] is on record?
Answer: 1 µg/mL (≈ 1.4 µM)

Question: What about the IC50 (A549) of the same compound?
Answer: 4.8 µg/mL (≈ 6.7 µM)

Question: And the IC50 (P388)?
Answer: 2.4 µg/mL (≈ 3.35 µM)

Question: And the IC50 (HT-29)?
Answer: 1.4 µg/mL (≈ 1.95 µM)

Question: Which results are given for CC(=O)O[C@H]1C[C@H]2[C@@H](O)[C@@H]3[C@](O)(COC(=O)c4ccccc4)[C@@H](OC(C)=O)C[C@H](OC(C)=O)[C@@]3(C)[C@@H](OC(C)=O)[C@H](OC(C)=O)C(=C1C)C2(C)C [TAXUMAIROL A]?
Answer: IC50 [1]: 0.4 µg/mL (≈ 0.558 µM); IC50 (A549): 1.7 µg/mL (≈ 2.37 µM); IC50 (P388): 0.05 µg/mL (≈ 0.0698 µM); IC50 (HT-29): 1 µg/mL (≈ 1.4 µM)

Question: With CC(=O)O[C@H]1C[C@@]2(O)[C@@H](OC(C)=O)[C@@H]3[C@@]4(CO4)[C@@H](OC(C)=O)C[C@H](O)[C@@]3(C)[C@@H](O)[C@H](OC(C)=O)C(=C1C)C2(C)C [TAXUMAIROL B] as the compound, how does the IC50 [1] read?
Answer: 1.4 µg/mL (≈ 2.46 µM)

Question: What about the IC50 (A549) of the same compound?
Answer: > 50 µg/mL

Question: What about the IC50 (P388) of the same compound?
Answer: > 50 µg/mL

Question: And the IC50 (HT-29)?
Answer: > 50 µg/mL
